ChEMBL document CHEMBL3991601, “The target landscape of clinical kinase drugs” (Science, 2017)
Calls of active or inactive are those of the source.

Tests used:
[1] = biological target: T1, Acyl-CoA dehydrogenase family member 10 (Homo sapiens, UniProt Q6JQN1)
T1 sequence (Q6JQN1 whole entry): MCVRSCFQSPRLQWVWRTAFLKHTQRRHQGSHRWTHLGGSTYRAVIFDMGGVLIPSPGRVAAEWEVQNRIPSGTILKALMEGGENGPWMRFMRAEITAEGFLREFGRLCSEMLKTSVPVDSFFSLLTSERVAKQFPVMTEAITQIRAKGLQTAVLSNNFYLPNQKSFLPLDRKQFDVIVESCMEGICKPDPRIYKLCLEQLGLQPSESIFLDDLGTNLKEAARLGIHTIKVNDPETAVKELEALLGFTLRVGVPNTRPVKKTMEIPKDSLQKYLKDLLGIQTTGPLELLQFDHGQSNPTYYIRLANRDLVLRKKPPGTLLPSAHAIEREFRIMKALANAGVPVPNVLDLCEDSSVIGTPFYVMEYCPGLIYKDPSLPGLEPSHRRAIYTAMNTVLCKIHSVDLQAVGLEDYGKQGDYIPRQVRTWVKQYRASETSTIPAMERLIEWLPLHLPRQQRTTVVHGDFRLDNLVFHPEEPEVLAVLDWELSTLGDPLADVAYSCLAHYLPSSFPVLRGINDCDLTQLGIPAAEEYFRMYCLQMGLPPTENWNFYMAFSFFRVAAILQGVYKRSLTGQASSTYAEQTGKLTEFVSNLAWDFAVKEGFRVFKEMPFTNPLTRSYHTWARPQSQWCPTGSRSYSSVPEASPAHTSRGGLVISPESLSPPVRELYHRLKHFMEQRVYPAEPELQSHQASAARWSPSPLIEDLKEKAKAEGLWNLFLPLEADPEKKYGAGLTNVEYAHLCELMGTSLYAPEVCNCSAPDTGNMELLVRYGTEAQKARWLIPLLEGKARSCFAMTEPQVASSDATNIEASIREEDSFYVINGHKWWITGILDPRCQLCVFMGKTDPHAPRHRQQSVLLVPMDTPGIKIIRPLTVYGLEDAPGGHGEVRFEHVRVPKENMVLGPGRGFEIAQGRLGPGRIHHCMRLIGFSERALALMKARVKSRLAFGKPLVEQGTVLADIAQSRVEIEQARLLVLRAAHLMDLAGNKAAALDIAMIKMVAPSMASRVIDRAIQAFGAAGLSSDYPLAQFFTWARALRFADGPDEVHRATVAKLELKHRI

[2] = biological target: T2, Adenine phosphoribosyltransferase (Homo sapiens, UniProt P07741)
T2 sequence (P07741 whole entry): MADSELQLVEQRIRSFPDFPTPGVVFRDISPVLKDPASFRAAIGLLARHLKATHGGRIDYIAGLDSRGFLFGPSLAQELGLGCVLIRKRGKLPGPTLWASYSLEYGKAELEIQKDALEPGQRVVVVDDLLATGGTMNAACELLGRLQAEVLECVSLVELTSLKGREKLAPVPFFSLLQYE

[3] = biological target: Cyclin-dependent kinase 4 (Homo sapiens, UniProt P11802)
Chain of Cyclin-dependent kinase 4 (P11802 whole entry): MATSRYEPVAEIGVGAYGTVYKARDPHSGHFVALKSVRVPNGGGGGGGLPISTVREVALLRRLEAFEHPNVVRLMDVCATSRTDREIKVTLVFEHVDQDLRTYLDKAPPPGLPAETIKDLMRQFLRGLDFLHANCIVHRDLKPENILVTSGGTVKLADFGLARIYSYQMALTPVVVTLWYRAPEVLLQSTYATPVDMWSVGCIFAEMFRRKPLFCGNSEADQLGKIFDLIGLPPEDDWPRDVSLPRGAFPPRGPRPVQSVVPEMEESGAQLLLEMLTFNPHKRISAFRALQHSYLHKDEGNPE

[4] = biological target: T3, Serine/threonine-protein kinase ICK (Homo sapiens, UniProt Q9UPZ9)
T3 sequence (Q9UPZ9 whole entry): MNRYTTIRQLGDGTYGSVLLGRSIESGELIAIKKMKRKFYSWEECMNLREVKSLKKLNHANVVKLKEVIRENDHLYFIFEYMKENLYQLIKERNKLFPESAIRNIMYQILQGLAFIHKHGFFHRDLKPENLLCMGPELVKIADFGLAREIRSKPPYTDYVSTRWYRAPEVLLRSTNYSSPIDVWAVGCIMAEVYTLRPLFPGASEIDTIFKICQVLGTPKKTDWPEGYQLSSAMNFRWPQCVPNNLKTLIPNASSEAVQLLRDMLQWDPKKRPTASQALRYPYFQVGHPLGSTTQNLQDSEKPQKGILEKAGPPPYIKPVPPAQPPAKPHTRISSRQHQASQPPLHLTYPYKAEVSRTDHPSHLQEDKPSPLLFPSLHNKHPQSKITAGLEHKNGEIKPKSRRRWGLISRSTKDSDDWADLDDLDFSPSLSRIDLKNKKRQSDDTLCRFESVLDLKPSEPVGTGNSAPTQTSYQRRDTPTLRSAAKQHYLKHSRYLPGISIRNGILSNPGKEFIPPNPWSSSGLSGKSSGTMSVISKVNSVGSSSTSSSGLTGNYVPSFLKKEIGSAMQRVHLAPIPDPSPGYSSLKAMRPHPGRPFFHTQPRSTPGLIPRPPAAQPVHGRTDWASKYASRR

[5] = biological target: T4, STE20-related kinase adapter protein alpha (Homo sapiens, UniProt Q7RTN6)
T4 sequence (Q7RTN6 whole entry): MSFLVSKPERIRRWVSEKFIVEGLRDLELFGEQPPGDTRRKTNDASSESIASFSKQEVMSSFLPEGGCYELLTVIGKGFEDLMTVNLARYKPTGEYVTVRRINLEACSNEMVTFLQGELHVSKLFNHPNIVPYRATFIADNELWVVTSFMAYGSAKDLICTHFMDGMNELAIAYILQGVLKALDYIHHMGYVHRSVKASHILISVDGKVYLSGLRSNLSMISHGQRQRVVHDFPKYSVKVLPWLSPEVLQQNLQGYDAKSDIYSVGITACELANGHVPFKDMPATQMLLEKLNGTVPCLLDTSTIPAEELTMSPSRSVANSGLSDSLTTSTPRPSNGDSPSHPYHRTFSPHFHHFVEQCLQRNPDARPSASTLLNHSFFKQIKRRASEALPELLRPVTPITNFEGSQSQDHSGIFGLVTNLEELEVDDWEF

[6] = biological target: T5, Succinate--CoA ligase [ADP-forming] subunit beta, mitochondrial (Homo sapiens, UniProt Q9P2R7)
T5 sequence (Q9P2R7 whole entry): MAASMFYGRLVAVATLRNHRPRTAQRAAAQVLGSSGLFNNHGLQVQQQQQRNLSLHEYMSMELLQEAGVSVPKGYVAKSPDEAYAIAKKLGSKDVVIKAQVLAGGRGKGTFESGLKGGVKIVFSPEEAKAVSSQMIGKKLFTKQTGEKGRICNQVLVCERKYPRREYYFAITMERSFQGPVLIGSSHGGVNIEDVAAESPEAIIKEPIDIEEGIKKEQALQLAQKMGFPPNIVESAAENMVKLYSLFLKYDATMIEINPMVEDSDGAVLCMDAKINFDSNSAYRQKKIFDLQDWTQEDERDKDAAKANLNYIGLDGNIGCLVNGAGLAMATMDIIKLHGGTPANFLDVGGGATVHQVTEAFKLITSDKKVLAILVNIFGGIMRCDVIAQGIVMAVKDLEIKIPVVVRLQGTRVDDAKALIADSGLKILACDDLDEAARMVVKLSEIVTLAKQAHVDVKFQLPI

[7] = biological target: Tyrosine-protein kinase BTK (Homo sapiens, UniProt Q06187)
Chain of Tyrosine-protein kinase BTK (Q06187 whole entry): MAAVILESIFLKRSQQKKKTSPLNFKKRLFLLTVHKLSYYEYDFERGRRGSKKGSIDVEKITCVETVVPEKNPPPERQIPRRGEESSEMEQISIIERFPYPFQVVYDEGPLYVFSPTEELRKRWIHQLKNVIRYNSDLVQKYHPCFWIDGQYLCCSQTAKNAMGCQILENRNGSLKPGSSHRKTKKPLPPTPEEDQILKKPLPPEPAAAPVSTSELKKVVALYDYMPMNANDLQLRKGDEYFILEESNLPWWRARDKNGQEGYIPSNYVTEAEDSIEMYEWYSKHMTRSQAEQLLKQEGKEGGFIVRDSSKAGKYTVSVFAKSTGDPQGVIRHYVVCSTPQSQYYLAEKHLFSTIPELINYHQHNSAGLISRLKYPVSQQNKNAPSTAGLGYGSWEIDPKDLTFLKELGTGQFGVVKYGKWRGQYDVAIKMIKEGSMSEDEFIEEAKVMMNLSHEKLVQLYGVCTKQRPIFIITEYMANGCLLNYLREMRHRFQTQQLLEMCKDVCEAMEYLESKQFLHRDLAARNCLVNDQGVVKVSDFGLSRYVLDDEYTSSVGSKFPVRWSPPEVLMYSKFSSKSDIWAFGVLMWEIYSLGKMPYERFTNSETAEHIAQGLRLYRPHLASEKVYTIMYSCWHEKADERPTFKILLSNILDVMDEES

Measured: Kd
Note: in the data inactive means no Kd found up to 30 µM.

O[C@H]1CC[C@H](Nc2ncc3nc(Nc4c(F)cc(F)cc4F)n([C@H]4CCOC4)c3n2)CC1 [TANZISERTIB]
inactive: [1] > 30 µM | [2] > 30 µM | [3] > 30 µM | [4] > 30 µM | [5] > 30 µM | [6] > 30 µM | [7] > 30 µM
